In brackets after ≈: the same amount, converted by molar mass.
Legend:
Type in all cases: physicochemical
[1] = Stability test of free base, crystal form A and crystal form C (content and related substance)
Description: The crystal form and purity change were measured respectively on 3rd and 7th day. The results are shown in Table 6, FIGS. 22, 23, 24 and 25. […]

[2] = Solubility test at room temperature
Description: The solubility of the crystal form A, the crystal form C and the free base in 0.1 M HCL, pH 4.5, or pH 6.8 buffer or water was tested at room temperature. In the test, the standard curves of the crystal form A, the crystal form C and the free base were plotted respectively. Subsequently, a appropriate amount of the crystal form A, the crystal form C and the free base was weighed respectively, to which was added a appropriate amount of solvent. The mixture was shaken at room temperature for 24 h, centrifuged. The supernatant was taken and the solubility was determined. The results are shown in Table 7, (the concentration unit is mg/mi).

[3] = Properties of crystal form I (DVS hygroscopicity, stability)
Description: The Dynamic Vapor Sorption (DVS) curve was acquired on the DVS Intrinsic of Surface Measurement Systems.
About 10 mg of the free base of the compound of formula X prepared according to the method of Example 1 was weighed into a glass vial, and an appropriate amount of ethyl acetate was added to obtain a nearly saturated solution, which was fully dissolved by ultrasonication and filtered. 20-200 uL of corresponding solvent was added to the clear filtrate, which was stood and the solvent was slowly evaporated at room temperature. After the solvent was completely evaporated, the resulting solid was collected and subjected to an XRPD test.

[4] = 5° C., 0 d (control), listed as From A
[5] = 40° C./75% RH, 3 d, listed as From A
[6] = 40° C./75% RH, 7 d, listed as From A
[7] = 0.1M HCL, room temperature, shaken 24 h
[8] = H2O, room temperature, shaken 24 h
[9] = pH 4.5 buffer, room temperature, shaken 24 h
[10] = pH 6.8 buffer, room temperature, shaken 24 h
[11] = 40° C./75% RH, 3 d, listed as From C
[12] = 40° C./75% RH, 7 d, listed as From C

C[C@@]12CCCCC[C@@H](Cc3ccc(OC(=O)NC4COC4)cc31)[C@@H]2N [Form A]
character ([1]; 5° C., 0 d (control)): off-white solid | Area (%) [1, 4]: 99.82% | Total impurity (%) [1, 4]: 0.18% | RRT(%) 1.25 (related substance) ([1]; 5° C., 0 d, — = below detection limit): 0.18% | RRT(%) 1.25 (related substance) ([1]; 40° C./75% RH, 3 d): 0.14% | character ([1]; 40° C./75% RH, 3 d): off-white solid | Area (%) [1, 5]: 99.47% | RRT(%) 0.81 (related substance) [1, 5]: 0.39% | Total impurity (%) [1, 5]: 0.53% | RRT(%) 1.25 (related substance) ([1]; 40° C./75% RH, 7 d): 0.17% | character ([1]; 40° C./75% RH, 7 d): off-white solid | Area (%) [1, 6]: 99.28% | RRT(%) 0.81 (related substance) [1, 6]: 0.54% | Total impurity (%) [1, 6]: 0.72% | RRT(%) 1.25 (related substance) ([1]; 60° C., 3 d): 0.20% | character ([1]; 60° C., 3 d): off-white solid | Area (%) ([1]; 60° C., 3 d, listed as From A): 99.68% | RRT(%) 0.81 (related substance) ([1]; 60° C., 3 d, listed as From A): 0.12% | Total impurity (%) ([1]; 60° C., 3 d, listed as From A): 0.32% | RRT(%) 1.25 (related substance) ([1]; 60° C., 7 d): 0.30% | character ([1]; 60° C., 7 d): off-white solid | Area (%) ([1]; 60° C., 7 d, listed as From A): 99.58% | RRT(%) 0.81 (related substance) ([1]; 60° C., 7 d, listed as From A): 0.11% | Total impurity (%) ([1]; 60° C., 7 d, listed as From A): 0.42% | Final pH [2, 7]: 0.91 | phenomenon [2, 7]: Flocculent | solubility at 24 h ([2]; 0.1 M HCl, simulated gastric fluid, thermodynamic from solid, room temperature, shaken 24 h): 17.8 mg/mL (≈ 51.8 mM) | Final pH [2, 8]: 3.86 | phenomenon [2, 8]: Flocculent | solubility [2, 8]: 8.25 mg/mL (≈ 24 mM) | Final pH [2, 9]: 3.92 | phenomenon [2, 9]: clarified | solubility [2, 9]: ≥8.36 mg/mL | Final pH [2, 10]: 5.86 | phenomenon [2, 10]: clarified | solubility [2, 10]: ≥11.03 mg/mL

C[C@@]12CCCCC[C@@H](Cc3ccc(OC(=O)NC4COC4)cc31)[C@@H]2N [Form C]
character ([1]; 5° C., 0 d (control)): off-white solid | Area (%) ([1]; 5° C., 0 d (control), listed as From C): 100.00% | RRT(%) 0.70 (related substance) ([1]; 40° C./75% RH, 3 d): 3.60% | RRT(%) 1.14 (related substance) ([1]; 40° C./75% RH, 3 d): 0.93% | character ([1]; 40° C./75% RH, 3 d): off-white solid | Area (%) [1, 11]: 94.92% | RRT(%) 0.81 (related substance) [1, 11]: 0.54% | Total impurity (%) [1, 11]: 5.08% | RRT(%) 0.70 (related substance) ([1]; 40° C./75% RH, 7 d): 3.04% | RRT(%) 1.14 (related substance) ([1]; 40° C./75% RH, 7 d): 0.92% | character ([1]; 40° C./75% RH, 7 d): off-white solid | Area (%) [1, 12]: 95.19% | RRT(%) 0.81 (related substance) [1, 12]: 0.85% | Total impurity (%) [1, 12]: 4.81% | RRT(%) 0.70 (related substance) ([1]; 60° C., 3 d): 3.68% | RRT(%) 1.14 (related substance) ([1]; 60° C., 3 d): 1.44% | character ([1]; 60° C., 3 d): off-white solid | Area (%) ([1]; 60° C., 3 d, listed as From C): 94.64% | RRT(%) 0.81 (related substance) ([1]; 60° C., 3 d, listed as From C): 0.24% | Total impurity (%) ([1]; 60° C., 3 d, listed as From C): 5.36% | RRT(%) 0.70 (related substance) ([1]; 60° C., 7 d): 3.60% | RRT(%) 1.14 (related substance) ([1]; 60° C., 7 d): 1.52% | character ([1]; 60° C., 7 d): off-white solid | Area (%) ([1]; 60° C., 7 d, listed as From C): 94.62% | RRT(%) 0.81 (related substance) ([1]; 60° C., 7 d, listed as From C): 0.26% | Total impurity (%) ([1]; 60° C., 7 d, listed as From C): 5.38% | Final pH [2, 7]: 1.53 | phenomenon [2, 7]: clarified | solubility [2, 7]: ≥33.87 mg/mL | Final pH [2, 8]: 3.45 | phenomenon [2, 8]: clarified | solubility [2, 8]: ≥26.05 mg/mL | solubility compared to the free base (in words) ([2]; pH 4.5, pH 6.8, or 0.1 M HCL): increased significantly | Final pH [2, 9]: 3.47 | phenomenon [2, 9]: clarified | solubility [2, 9]: ≥25.50 mg/mL | Final pH [2, 10]: 3.84 | phenomenon [2, 10]: clarified | solubility [2, 10]: ≥26.11 mg/mL

C[C@@]12CCCCC[C@@H](Cc3ccc(OC(=O)NC4COC4)cc31)[C@@H]2N [Form I]
stability (in words) [3]: good stability | hygroscopicity (DVS curve) ([3]; DVS, 25° C., 0% RH~95% RH): almost has no hygroscopicity

Reference: patent publication US20210087156A1, “PHARMACEUTICALLY ACCEPTABLE SALTS OF BENZODICYCLOALKANE DERIVATIVE, P[…] THEREOF, AND APPLICATION THEREOF” (priority 2018, published 2021)
